Source: patent publication US6489098B1, “Means and methods for monitoring nucleoside reverse transcriptase inhibitor antiretroviral therapy and guiding therapeutic decisions in the treatment of HIV/AIDS” (ViroLogic, Inc., priority 1998, dated 2002)
“Also recorded” adds a separate entry of the source.

Experiments:
[1] = test system: HIV-1 RT mutant resistance test vector Q151M-RTV; experiment: Phenotypic susceptibility assay, site directed RTV Q151M; format: cell-based; conditions: for effect on susceptibility (words): RTV with Q151M vs wild type RTV
Protocol: (§1) Resistance tests were carried out with resistance test vectors using two host cell types. Resistance test vector viral particles were produced by a first host cell (the resistance test vector host cell) that was prepared by transfecting a packaging host cell with the resistance test vector and the packaging expression vector. The resistance test vector viral particles were then used to infect a second host cell (the target host cell) in which the expression of the indicator gene is measured.
(§2) The resistance test vectors containing a functional luciferase gene cassette were constructed and host cells were transfected with the resistance test vector DNA. The resistant test vectors contained patient-derived reverse transcriptase and protease sequences that were either susceptible or resistant to the antiretroviral agents, such as nucleoside reverse transcriptase inhibitors, non-nucleoside reverse transcriptase inhibitors and protease inhibitors. The resistance test vector viral particles produced by transfecting the resistance test vector DNA into host cells, either in the presence or absence of protease inhibitors, were used to infect target host cells grown either in the absence of NRTI or NNRTI or In the presence of increasing concentrations of the drug. The amount of luciferase activIty produced in infected target host cells in the presence of drug was compared to the amount of luciferase produced in infected target host cells in the absence of drug. Drug resistance was measured as the amount of drug required to inhibit by 50% the luciferase activity detected in the absence of drug (Inhibitory concentration 50%, IC50). The IC50 values were determined by plotting percent drug inhibition vs. log 10 drug concentration.
(§3) Host cells were seeded in 10-cm-diameter dishes and were transfected several days after plating with resistance test vector plasmid DNA and the envelope expression vector. Transfections were performed using a calcium-phosphate precipitation procedure. The cell culture media containing the DNA precipitate was replaced with fresh medium, from one to 24 hours, after transfection. Cell culture media containing resistance test vector viral particles was harvested one to four days after transfection and was passed through a […] filter before being stored at −80° C. HIV capsid protein (p24) levels in the harvested cell culture media were determined by an EIA method as described by the manufacturer (SIAC; Frederick, Md.). Before infection, target cells (293 and 293/T) were plated in cell culture media. Control infections were performed using cell culture media from mock transfections (no DNA) or transfections containing the resistance test vector plasmid DNA without the envelope expression plasmid. One to three or more days after infectIon the media was removed and cell lysis buffer (Promega) was added to each well. Cell lysates were assayed for luciferase activity (FIG. 3). The inhibitory effect of the drug was determined using the following equation:
% luciferase inhibition=1−(RLUluc[drug]÷RLUluc)×100 […]
(§4) Genotypic changes that are observed to correlate with changes in phenotypic patterns of drug susceptibility are evaluated by construction of resistance test vectors containing the specific mutation on a defined, wild-type (drug susceptible) genetic background. […]

[2] = test system: HIV-1 RT mutant resistance test vector 41 + 69 + 184 + 215; experiment: Phenotypic susceptibility assay, site directed RTV 41 + 69 + 184 + 215; format: cell-based; conditions: RTV with 41 + 69 + 184 + 215; 2 replicates
Protocol: as §1, §2, §3
% luciferase inhibition=1−(RLUluc[drug]÷RLUluc)×100
where RLUluc [drug] is the relative light unit of luciferase activity in infected cells in the presence of drug and RLUluc is the Relative Light Unit of luciferase activity in infected cells in the absence of drug. IC50 values were obtained from the sigmoidal curves that were generated from the data by plotting the percent inhibition of luciferase activity vs. the log 10 drug concentration. The drug inhibition curves are shown in (FIG. 3).
as §4, with “background. Mutations may be incorporated alone and/or in combination with other known drug resistance mutations that are thought to modulate the susceptibility of HIV to a certain drug or class of drugs.” for “background.”

[3] = test system: patient RTV-136, RTV-240, RTV-955 and RTV-960 (A62V, V75I, F77L, F116Y, Q151M); experiment: Phenotypic susceptibility assay, patient isolates with multi-NRTI resistance mutations; format: cell-based, HIV-1; conditions: for susceptibility compared to wild-type control RTV: patient RTV pools with MDR mutations
Protocol: In these experiments patient-derived segment(s) corresponding to the HIV protease and reverse transcriptase coding regions were either patient-derived segments amplified by the reverse transcription-polymerase chain reaction method (RT-PCR) using viral RNA isolated from viral particles present in the serum of HIV-infected individuals or were mutants of wild type HIV-1 made by site directed mutagenesis of a parental clone of resistance test vector DNA. Isolation of viral RNA was performed using standard procedures (e.g. RNAgents Total RNA Isolation System, Promega, Madison Wis. or RNAzol, Tel-Test, Friendswood, Tex.). The RT-PCR protocol was divided into two steps. A retroviral reverse transcriptase [e.g. Moloney MuLV reverse transcriptase (Roche Molecular Systems, Inc., Branchburg, N.J.), or avian myeloblastosis virus (AMV) reverse transcriptase, (Boehringer Mannheim, Indianapolis, Ind.)] was used to copy viral RNA into cDNA. The cDNA was then amplified using a thermostable DNA polymerase [e.g. Taq (Roche Molecular Systems, Inc., Branchburg, N.J.), Tth (Roche Molecular Systems, Inc., Branchburg, N.J.), PrimeZyme (isolated from Thermus brockianus, Biometra, Gottingen, Germany)] or a combination of thermostable polymerases as described for the performance of “long PCR” (Barnes, W. M., (1994) Proc. Natl. Acad. Sci, USA 91, 2216-2220) [e.g. Expand High Fidelity PCR System (Taq+Pwo), (Boehringer Mannheim. Indianapolis, Ind.) OR GeneAmp XL PCR kit (Tth+Vent), (Roche Molecular Systems, Inc., Branchburg, N.J.)].
Resistance test vectors incorporating the “test” patient-derived segments were constructed as described in PCT International Application No. PCT/US97/01609, filed Jan. 29, 1997 using an amplified DNA product of 1.5 kB prepared by RT-PCR using viral RNA as a template and oligonucleotides PDSApa (1) and PDSAge (2) as primers, followed by digestion with ApaI and AgeI or the isoschizimer PINAI. To ensure that the plasmid DNA corresponding to the resultant resistance test vector comprises a representative sample of the HIV viral quasi-species present in the serum of a given patient, many (>100) independent E. coli transformants obtained in the construction of a given resistance test vector were pooled and used for the preparation of plasmid DNA.
as §1
as §2, with “The IC50 values were determined by plotting percent drug inhibition vs. log 10 drug concentration.” left out

[4] = test system: HIV-1 RT mutant resistance test vector V75V; experiment: Phenotypic susceptibility assay, site directed RTV V75V; format: cell-based; conditions: for effect on susceptibility (words): RTV with V75V
Protocol: as §1
as §2, with “The amount of luciferase activIty produced in infected target host cells in the presence of drug was compared to the amount of luciferase produced in infected target host cells in the absence of drug. Drug resistance was measured as the amount of drug required to inhibit by 50% the luciferase activity detected in the absence of drug (Inhibitory concentration 50%, IC50).” left out
Host cells were seeded in 10-cm-diameter dishes and were transfected several days after plating with resistance test vector plasmid DNA and the envelope expression vector. […] HIV capsid protein (p24) levels in the harvested cell culture media were determined by an EIA method as described by the manufacturer (SIAC; Frederick, Md.). […] The inhibitory effect of the drug was determined using the following equation: […]
as §4

Compound | effect on susceptibility (words) [1] | Average fold reduction in susceptibility [2] | susceptibility compared to wild-type control RTV [3] | effect on susceptibility (words) [4] | fold reduction in susceptibility ([1]; RTV with Q151M vs control RTV) | fold reduced susceptibility ([3]; four patient viruses with multi-NRTI resistance mutations (FIG. 4)) | fold reduction in susceptibility ([4]; RTV with V75V vs control RTV)
Cc1cn([C@H]2C[C@H](N=[N+]=[N-])[C@@H](CO)O2)c(=O)[nH]c1=O [AZT, zidovudine] | Significant changes in susceptibility; also recorded: reduced d4T and AZT susceptibility | 5.87 fold | decreases in susceptibility | increased AZT susceptibility slightly |  |  | 
Nc1ccn([C@H]2CC[C@@H](CO)O2)c(=O)n1 [ddC, zalcitabine] | Significant changes in susceptibility | 3.48 fold | decreases in susceptibility |  |  |  | 
Cc1cn([C@H]2C=C[C@@H](CO)O2)c(=O)[nH]c1=O [d4T, stavudine] | less susceptible to d4T than the wild type control RTV; also recorded: reduced d4T and AZT susceptibility | 2.32 fold | decrease in susceptibility to d4T; also recorded: decreases in susceptibility | did not reduce d4T susceptibility | approximately three-fold | 4-12 fold | less than two-fold
O=c1[nH]cnc2c1ncn2[C@H]1CC[C@@H](CO)O1 [ddI, didanosine] | Significant changes in susceptibility | 2.28 fold | decreases in susceptibility |  |  |  | 
Nc1nc(NC2CC2)c2ncn([C@H]3C=C[C@@H](CO)C3)c2n1 [ABC, abacavir] |  | 11.56 fold | decreases in susceptibility |  |  |  | 
